The results in this text go back to patent US11752169B2, “Treatment of pain with polysulfated polysaccharides” (PARADIGM BIOPHARMACEUTICALS LTD., priority 2018, dated 2023).

In one test the test system is MMP13 mRNA. Put plainly: real-time RT-PCR for MMP13 mRNA in KOA osteocyte-like cultures. The class given is cell-based, human. The settings on record: KOA donor osteocyte-like cultures, PPS 1 μg/mL + rhTNFα 1 ng/mL (FIG. 20). The text has this: FIG. 20. The effect of PPS treatment on basal and TNFα-induced MMP13 expression in human KOA osteocyte-like cultures. Real-time RT-PCR analysis of MMP13 mRNA relative to the expression of 18S rRNA. Data are means+SD of triplicate real-time RT-PCR reactions. A) KOA1-MMP13:18S mRNA expression; and B) KOA2-MMP13:185 mRNA expression.
(§1) Cryopreserved cells from each donor (all at passage 0 or 1) were thawed and cultured for 10d in T75 cm^2 tissue culture flasks. Once confluent, cells were removed by collagenase/dispase digestion, washed by centrifugation, counted and adjusted to 5×10^5 cells/mL. Cells were then seeded into either 12-well tissue culture trays or into 8-well chamber slides, at 1×10^5 and 2×10^4 cells/well, respectively. […]
(§2) Following three days of pre-treatment of osteocyte-like cultures with PPS and a further 48 h treatment period, total RNA was isolated for the purposes of analysing gene expression using real-time RT-PCR. While the quality of the RNA isolated from all cultures appeared to be high, as adjudged by Nanodrop micro-spectrophotometry showing the ratio of absorbance at 260 nm/280 nm generally being between 1.9 and 2.0, there was a consistent inability to generate complementary DNA (cDNA) from any samples exposed to 5 or 50 μg/mL PPS, except in one or two samples. […]
In general terms: In qPCR the cycle at which signal appears reflects the starting amount.

For a further test, the system named is NGF. Put plainly: human NGF ELISA of culture supernatants of osteocyte-like cultures. Format: cell-based. To be noted: KOA or NOF osteocyte-like cultures, PPS 1, 5 or 50 μg/mL for 72 h vs untreated.
Excerpt: In order to maximise the clinical relevance of the findings from this study, the effects of PPS were to be tested on osteocyte-like cultures derived by differentiation in vitro for a period of 28 days from cells isolated from the subchondral bone of the proximal tibia of three patients with advanced knee OA who underwent total knee arthroplasty (TKA) surgery (KOA: Group 1). As a comparator group, cells isolated from the proximal femur of three patients who underwent total hip arthroplasty (THA) for neck of femur fracture (NOF: Group 2), were similarly differentiated and tested. The gender of all donors was female, and group were age matched, with the mean age of KOA being 77.0±8.5 years and that of the NOF group being 77.7±5.5 years (p=0.91).
as §1
(In an ELISA, binding on a coated surface is turned into a signal by an enzyme label.)

The test system of the next test is COX2 mRNA. Nature of the test: real-time RT-PCR for COX2 mRNA in KOA osteocyte-like cultures. The class given is cell-based, human. As to the method: Cryopreserved cells from each donor (all at passage 0 or 1) were thawed and cultured for 10d in T75 cm^2 tissue culture flasks. Once confluent, cells were removed by collagenase/dispase digestion, washed by centrifugation, counted and adjusted to 5×10^5 cells/mL. Cells were then seeded into either 12-well tissue culture trays or into 8-well chamber slides, at 1×10^5 and 2×10^4 cells/well, respectively. After 24 h, media were replaced with osteogenic differentiation medium, consisting of αMEM, 5% v/v foetal calf serum (FCS), 1.8 mM potassium dihydrogen phosphate (KH2PO4), 100 μM Ascorbate-2-phosphate (As2P), 10 mM HEPES, 10^−8 M Dexamethasone and 0.2 mM L-Glutamine. During the differentiation process, samples were collected at days 3, 14 and 28 in Trizol reagent for total RNA preparation and gene expression analysis (see below). […]
as §2

Turning to Sodium Pentosan Polysulfate [PPS], the “rhTNFα-induced MMP13 mRNA expression” value in the test on MMP13 mRNA is on record as “strongly inhibited”. Moreover, the “secreted levels of mature NGF protein (ELISA)” value with NGF is “increased”. Besides, in the test on COX2 mRNA (PPS 1 μg/mL (FIG. 18)), the “COX2 mRNA expression, PPS alone” value was “completely inhibited”. Further, in the test with COX2 mRNA (PPS 1 μg/mL + rhTNFα 1 ng/mL (FIG. 18)), the “COX2 mRNA expression, PPS in combination with rhTNFα” value is on record as “completely inhibited”.
